In patent US6355799B1, “Substituted benzene compounds, process for their preparation, and herbicidal and defoliant compositions containing them” (ISK Americas Incorporated, priority 1997, dated 2002):

What was measured:
Type in all cases: in vivo
[1] = system: redroot pigweed (Amaranthus retroflexus, AMARE); test: Pre-emerge test, greenhouse herbicide activity screening; settings: pre-emerge, rated 14 days after application, 0 = no damage, 100 = complete death
In short: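 Rating: 0–100 visual injury, 14 DAA. Application: acetone, 187 l/ha, 15–1000 g ai/ha, flat-fan track sprayer with nozzle 40–45 cm above soil or canopy. Post-emerge runs used 0.25% v/v surfactant on 2–3 leaf plants.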

[2] = system: barnyardgrass (Echinochloa crus-galli, ECHCG); test: as above; settings: pre-emerge, rated 14 days after application, 0 = no damage, 100 = complete death
In short: (§1)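 Plants grown in 10 cm pots of sandy loam mix received acetone-dissolved compounds through a moving flat-fan nozzle. Doses ranged from 15 to 1000 g ai/ha. Pre-emerge pots were seeded one day earlier, post-emerge pots 8–21 days earlier. Fourteen days on, each pot was graded 0–100 for damage.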

[3] = system: common ragweed (Ambrosia artemisizfolia L., AMBEL); test: as above; settings: pre-emerge, rated 14 days after application, 0 = no damage, 100 = complete death
In short: as §1

[4] = system: green foxtail (Setaria viridis, SETVI); test: as above; settings: pre-emerge, rated 14 days after application, 0 = no damage, 100 = complete death
In short: as §1

[5] = system: ivyleaf morningglory (Ipomoea hederacea, IPOHE); test: as above; settings: pre-emerge, rated 14 days after application, 0 = no damage, 100 = complete death
In short: as §1

[6] = system: johnsongrass (Sorghum halepense, SORHA); test: as above; settings: pre-emerge, rated 14 days after application, 0 = no damage, 100 = complete death
In short: as §1

[7] = system: lambsquarters (Chenopodium album, CHEAL); test: as above; settings: pre-emerge, rated 14 days after application, 0 = no damage, 100 = complete death
In short: as §1

[8] = system: large crabgrass (Digitaria sanguinalis, DIGSA); test: as above; settings: pre-emerge, rated 14 days after application, 0 = no damage, 100 = complete death
In short: as §1

[9] = system: sicklepod (Cassia obtusifolia, CASOB); test: as above; settings: pre-emerge, rated 14 days after application, 0 = no damage, 100 = complete death
In short: as §1

[10] = system: velvetleaf (Abutilon theophrasti, ABUTH); test: as above; settings: pre-emerge, rated 14 days after application, 0 = no damage, 100 = complete death
In short: as §1

[11] = system: field corn (Zea mays L., var. Dekalb 535, CORN); test: Pre-emerge test, crop safety; settings: pre-emerge, rated 14 days after application, 0 = no damage, 100 = complete death
In short: (§2)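 Applied at 15–1000 g ai/ha from acetone in 187 l/ha spray volume. Post-emergence applications included 0.25% v/v non-ionic surfactant and reached plants sown 8–21 days before. Pre-emergence applications were incorporated by surface watering. Efficacy or crop damage was rated on a 0–100 scale after 14 days.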

[12] = system: upland rice (Oryza sp., var. Tebonnet, RICE); test: Pre-emerge test, crop safety; settings: pre-emerge, rated 14 days after application, 0 = no damage, 100 = complete death
In short: as §2

[13] = system: barnyardgrass (Echinochloa crus-galli, ECHCG); test: Post-emerge test, greenhouse herbicide activity screening; settings: phytotoxicity rating 0-100 (0 no damage, 100 complete death), 14 days after application
In short: (§3)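 Compounds in acetone were track-sprayed at 15-1000 g ai/ha (187 l/ha) on sandy loam pots: pre-emerge one day after seeding, post-emerge at 2-3 leaf stage with 0.25% v/v non-ionic surfactant. Phytotoxicity was rated 14 days later on a 0 (no damage) to 100 (complete death) scale.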

[14] = system: common ragweed (Ambrosia artemisizfolia L., AMBEL); test: as above; settings: phytotoxicity rating 0-100 (0 no damage, 100 complete death), 14 days after application
In short: as §3

[15] = system: green foxtail (Setaria viridis, SETVI); test: as above; settings: phytotoxicity rating 0-100 (0 no damage, 100 complete death), 14 days after application
In short: as §3

[16] = system: ivyleaf morningglory (Ipomoea hederacea, IPOHE); test: as above; settings: phytotoxicity rating 0-100 (0 no damage, 100 complete death), 14 days after application
In short: as §3

[17] = system: lambsquarters (Chenopodium album, CHEAL); test: as above; settings: phytotoxicity rating 0-100 (0 no damage, 100 complete death), 14 days after application
In short: as §3

[18] = system: large crabgrass (Digitaria sanguinalis, DIGSA); test: as above; settings: phytotoxicity rating 0-100 (0 no damage, 100 complete death), 14 days after application
In short: as §3

[19] = system: redroot pigweed (Amaranthus retroflexus, AMARE); test: as above; settings: phytotoxicity rating 0-100 (0 no damage, 100 complete death), 14 days after application
In short: as §3

[20] = system: sicklepod (Cassia obtusifolia, CASOB); test: as above; settings: phytotoxicity rating 0-100 (0 no damage, 100 complete death), 14 days after application
In short: as §3

[21] = system: velvetleaf (Abutilon theophrasti, ABUTH); test: as above; settings: phytotoxicity rating 0-100 (0 no damage, 100 complete death), 14 days after application
In short: as §3

[22] = system: field corn (Zea mays L., var. Dekalb 535, CORN); test: Post-emerge test, crop safety; settings: phytotoxicity rating 0-100 (0 no damage, 100 complete death), 14 days after application
In short: (§4)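 Each test used a mechanized track sprayer delivering 187 l/ha of acetone solution at 15–1000 g ai/ha. Post-emerge foliage at 2–3 leaves was treated with added 0.25% v/v non-ionic surfactant and bottom-watered only. Injury was assessed on day 14, where 100 means total kill.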

[23] = system: upland rice (Oryza sp., var. Tebonnet, RICE); test: Post-emerge test, crop safety; settings: phytotoxicity rating 0-100 (0 no damage, 100 complete death), 14 days after application
In short: as §4

CCOc1c(Cl)cc(F)c(-n2c(=O)cc(C(F)(F)F)n(C)c2=O)c1N [Compound 1-61]
Pre-emerge Herbicidal Activity AMARE (phytotoxicity rating, scale 0-100) ([1]; 63 g ai/ha): 95
Pre-emerge Herbicidal Activity AMARE (phytotoxicity rating, scale 0-100) ([1]; 250 g ai/ha): 100
Pre-emerge Herbicidal Activity ECHCG (phytotoxicity rating, scale 0-100) ([2]; 63 g ai/ha): 75
Pre-emerge Herbicidal Activity ECHCG (phytotoxicity rating, scale 0-100) ([2]; 250 g ai/ha): 99
Pre-emerge Herbicidal Activity AMBEL (phytotoxicity rating, scale 0-100) ([3]; 63 g ai/ha): 60
Pre-emerge Herbicidal Activity AMBEL (phytotoxicity rating, scale 0-100) ([3]; 250 g ai/ha): 100
Pre-emerge Herbicidal Activity SETVI (phytotoxicity rating, scale 0-100) ([4]; 63 g ai/ha): 95
Pre-emerge Herbicidal Activity SETVI (phytotoxicity rating, scale 0-100) ([4]; 250 g ai/ha): 100
Pre-emerge Herbicidal Activity IPOHE (phytotoxicity rating, scale 0-100) ([5]; 63 g ai/ha): 60
Pre-emerge Herbicidal Activity IPOHE (phytotoxicity rating, scale 0-100) ([5]; 250 g ai/ha): 90
Pre-emerge Herbicidal Activity SORHA (phytotoxicity rating, scale 0-100) ([6]; 63 g ai/ha): 70
Pre-emerge Herbicidal Activity SORHA (phytotoxicity rating, scale 0-100) ([6]; 250 g ai/ha): 99
Pre-emerge Herbicidal Activity CHEAL (phytotoxicity rating, scale 0-100) ([7]; 63 g ai/ha): 100
Pre-emerge Herbicidal Activity CHEAL (phytotoxicity rating, scale 0-100) ([7]; 250 g ai/ha): 100
Pre-emerge Herbicidal Activity DIGSA (phytotoxicity rating, scale 0-100) ([8]; 63 g ai/ha): 40
Pre-emerge Herbicidal Activity DIGSA (phytotoxicity rating, scale 0-100) ([8]; 250 g ai/ha): 99
Pre-emerge Herbicidal Activity CASOB (phytotoxicity rating, scale 0-100) ([9]; 63 g ai/ha): 30
Pre-emerge Herbicidal Activity CASOB (phytotoxicity rating, scale 0-100) ([9]; 250 g ai/ha): 80
Pre-emerge Herbicidal Activity ABUTH (phytotoxicity rating, scale 0-100) ([10]; 63 g ai/ha): 100
Pre-emerge Herbicidal Activity ABUTH (phytotoxicity rating, scale 0-100) ([10]; 250 g ai/ha): 100
Pre-emerge crop damage CORN (phytotoxicity rating, scale 0-100) ([11]; 63 g ai/ha): 60
Pre-emerge crop damage CORN (phytotoxicity rating, scale 0-100) ([11]; 250 g ai/ha): 95
Pre-emerge crop damage RICE (phytotoxicity rating, scale 0-100) ([12]; 63 g ai/ha): 50
Pre-emerge crop damage RICE (phytotoxicity rating, scale 0-100) ([12]; 250 g ai/ha): 95
Post-emerge Herbicidal Activity ECHCG ([13]; 63 g ai/ha): 0
Post-emerge Herbicidal Activity ECHCG ([13]; 250 g ai/ha): 10
Post-emerge Herbicidal Activity AMBEL ([14]; 63 g ai/ha): 70
Post-emerge Herbicidal Activity AMBEL ([14]; 250 g ai/ha): 85
Post-emerge Herbicidal Activity SETVI ([15]; 63 g ai/ha): 10
Post-emerge Herbicidal Activity SETVI ([15]; 250 g ai/ha): 30
Post-emerge Herbicidal Activity IPOHE ([16]; 63 g ai/ha): 100
Post-emerge Herbicidal Activity IPOHE ([16]; 250 g ai/ha): 100
Post-emerge Herbicidal Activity CHEAL ([17]; 63 g ai/ha): 30
Post-emerge Herbicidal Activity CHEAL ([17]; 250 g ai/ha): 70
Post-emerge Herbicidal Activity DIGSA ([18]; 63 g ai/ha): 10
Post-emerge Herbicidal Activity DIGSA ([18]; 250 g ai/ha): 30
Post-emerge Herbicidal Activity AMARE ([19]; 63 g ai/ha): 50
Post-emerge Herbicidal Activity AMARE ([19]; 250 g ai/ha): 70
Post-emerge Herbicidal Activity CASOB ([20]; 63 g ai/ha): 60
Post-emerge Herbicidal Activity CASOB ([20]; 250 g ai/ha): 70
Post-emerge Herbicidal Activity ABUTH ([21]; 63 g ai/ha): 70
Post-emerge Herbicidal Activity ABUTH ([21]; 250 g ai/ha): 100
Post-emerge Herbicidal Activity CORN (crop damage) ([22]; 63 g ai/ha): 10
Post-emerge Herbicidal Activity CORN (crop damage) ([22]; 250 g ai/ha): 30
Post-emerge Herbicidal Activity RICE (crop damage) ([23]; 63 g ai/ha): 10
Post-emerge Herbicidal Activity RICE (crop damage) ([23]; 250 g ai/ha): 35
